Assay results as given in patent US20190269752A1, “Methods for the Prevention or Treatment of Epilepsy” (Duke University, priority 2018, published 2019).
Where a SMILES comes first, the peptide text is derived from it. [ ]: non-standard residue; d: D form. pY = N[C@@H](Cc1ccc(OP(=O)(O)O)cc1)C(=O)O

Experiments:
PLCγ1 = biological target: T1, PLCγ1 (Mus musculus, UniProt Q62077); test: Inhibition of PLCγ1 activation: western blot of p-PLCγ1 (pY783)/PLCγ1 in hippocampal lysates after intraperitoneal injection; format: in vivo; details: single dose 20 mg/kg i.p., wild type mice, hippocampal lysates at 3 h; dose dependent (10 or 20 mg/kg)
T1 construct: from tissue; host or cells: hippocampus of adult wild type mice
T1 sequence (Q62077 1-1302): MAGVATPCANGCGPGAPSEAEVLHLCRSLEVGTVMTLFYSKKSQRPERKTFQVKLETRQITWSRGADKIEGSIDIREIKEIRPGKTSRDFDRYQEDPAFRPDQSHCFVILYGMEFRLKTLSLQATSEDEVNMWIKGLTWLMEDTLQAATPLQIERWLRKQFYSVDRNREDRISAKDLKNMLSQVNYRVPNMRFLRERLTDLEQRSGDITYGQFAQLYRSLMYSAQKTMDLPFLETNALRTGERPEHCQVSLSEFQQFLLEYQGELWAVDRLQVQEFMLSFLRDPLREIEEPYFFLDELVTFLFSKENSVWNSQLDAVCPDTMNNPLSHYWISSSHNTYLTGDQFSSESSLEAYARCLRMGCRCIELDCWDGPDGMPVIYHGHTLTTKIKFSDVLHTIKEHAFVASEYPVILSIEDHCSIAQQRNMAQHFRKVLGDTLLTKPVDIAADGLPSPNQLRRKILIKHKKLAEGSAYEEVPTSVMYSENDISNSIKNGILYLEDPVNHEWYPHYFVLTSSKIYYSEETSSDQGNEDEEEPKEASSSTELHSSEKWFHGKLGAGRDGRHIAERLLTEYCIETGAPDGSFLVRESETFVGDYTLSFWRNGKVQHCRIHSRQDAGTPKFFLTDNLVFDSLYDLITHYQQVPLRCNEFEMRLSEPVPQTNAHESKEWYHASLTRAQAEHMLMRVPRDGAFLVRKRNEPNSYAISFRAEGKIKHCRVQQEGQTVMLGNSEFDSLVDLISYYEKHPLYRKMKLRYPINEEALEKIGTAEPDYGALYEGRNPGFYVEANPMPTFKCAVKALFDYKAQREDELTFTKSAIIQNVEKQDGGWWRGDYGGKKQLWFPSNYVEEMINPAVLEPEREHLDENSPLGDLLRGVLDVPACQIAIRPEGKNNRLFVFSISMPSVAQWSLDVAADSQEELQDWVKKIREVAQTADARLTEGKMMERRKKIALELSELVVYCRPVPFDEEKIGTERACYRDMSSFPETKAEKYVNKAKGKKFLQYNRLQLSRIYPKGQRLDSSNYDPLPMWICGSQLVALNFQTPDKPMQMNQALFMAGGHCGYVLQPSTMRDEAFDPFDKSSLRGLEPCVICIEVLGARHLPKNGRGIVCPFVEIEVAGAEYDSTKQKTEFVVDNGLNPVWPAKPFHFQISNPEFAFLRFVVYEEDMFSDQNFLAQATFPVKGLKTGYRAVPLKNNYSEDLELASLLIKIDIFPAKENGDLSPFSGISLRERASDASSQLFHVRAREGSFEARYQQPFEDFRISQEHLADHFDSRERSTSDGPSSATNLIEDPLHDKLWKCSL
Source text: (§1) Determining whether pY816 may be beneficial in epileptic animals required modification of our study of the kainic acid (KA)-status epilepticus (SE) model. To more closely mimic the clinical scenario in which patients seek medical attention for established TLE, we induced KA-SE and then conducted video-EEG recordings to detect spontaneous recurrent seizures during baseline periods of two to four weeks until they developed TLE prior to treating with pY816 peptide. In contrast to just three days of treatment with pY816 deployed in previous studies, we sought a more prolonged treatment with pY816 for the current experiments, namely two weeks. The intravenous route of administration used for three days in the prior studies was not feasible for two weeks, leading us to ask whether treatment via intraperitoneal route could inhibit activation of PLCγ1. We used the phosphorylation of residue Y783 of PLCγ1 detected on western blot of brain lysates as a surrogate measure of PLCγ1 activation.
Hippocampal lysates (30-40 μg) were subjected to SDS_PAGE and western blotting. The blots were probed with antibodies specifically recognizing p-PLCγ1 (pY783) (a surrogate for activation of PLCγ1) and PLCγ1.

[1] = system: epileptic animals (KA-SE); test: Spontaneous recurrent seizures (video-EEG) after kainic acid-induced status epilepticus (KA-SE model of TLE); format: in vivo, mice; details: 20 mg/kg IP twice daily for two weeks
Source text: as §1
Having verified that intraperitoneal administration of pY816 inhibited PLCγ1 activation, we then asked whether treatment with pY816 initiated after onset of epilepsy and continued for two weeks would reduce the severity of epilepsy or even induce a remission. Towards that end, we induced KA-SE but then followed the animals for several weeks until they developed TLE as assessed by detection of SRS in continuous video-EEG recordings. We quantified the number of SRS in each animal by blinded review of video-EEG recordings during three distinct two week epochs (FIG. 8): a) baseline; b) treatment with pY816 (n=9) or Scr control (n=6), 20 mg/kg IP twice daily for two weeks (on Tx); c) following termination of treatment (Post Tx). As noted in FIG. 8, following induction of status epilepticus induced by infusion of kainic acid into amygdala (Gu et al 2015) animals underwent continuous video-EEG recording to detect spontaneous recurrent seizures. Following baseline recording of two weeks, animals were treated with either pY816 or Scr control peptide (20 mg/kg) twice daily for two weeks (Day 15-28). Video-EEG recording continued for two weeks following termination of treatment (Post-treatment).
Results are shown in FIG. 9, where each symbol represents the number of seizures experienced by a given animal during Baseline, Treatment (Tx), or Post-treatment (Post Tx) periods. Horizontal bars designate median. Treatment (Tx) consisted of either pY816 or Scr control given 20 mg/kg twice daily for two weeks. Note that seizure detection was performed by analyses of video-EEG recordings by two blinded investigators.
Antiseizure drugs in current clinical use provide symptomatic relief of seizures in many but not all patients, but seizures typically recur upon cessation of the drug. To verify that similar findings occur in our animal model, we tested the effect of an antiseizure drug in current clinical use in our model (carbamazepine). We infused additional animals with KA and assessed the occurrence of SRS with continuous video-EEG monitoring for several weeks. […] Thus, like TLE in humans, continuous treatment with an antiseizure drug suppresses seizures, yet seizures recur upon discontinuation of treatment.

CC[C@H](C)[C@H](NC(=O)[C@H](CC(=O)O)NC(=O)[C@H](CC(C)C)NC(=O)[C@H](Cc1ccc(OP(=O)(O)O)cc1)NC(=O)[C@@H](NC(=O)[C@@H]1CCCN1C(=O)[C@H](CO)NC(=O)[C@H](C)NC(=O)[C@H](CCCCN)NC(=O)[C@H](C)NC(=O)[C@H](CC(C)C)NC(=O)[C@H](CC(N)=O)NC(=O)[C@H](CCC(N)=O)NC(=O)[C@H](CC(C)C)NC(=O)[C@H](CCCNC(=N)N)NC(=O)[C@H](CCCNC(=N)N)NC(=O)[C@H](CCCNC(=N)N)NC(=O)[C@H](CCC(N)=O)NC(=O)[C@H](CCCNC(=N)N)NC(=O)[C@H](CCCNC(=N)N)NC(=O)[C@H](CCCCN)NC(=O)[C@H](CCCCN)NC(=O)[C@H](CCCNC(=N)N)NC(=O)CNC(=O)[C@@H](N)Cc1ccc(O)cc1)C(C)C)C(=O)O [pY816] (H-YGRKKRRQRRRLQNLAKASPV[pY]LDI-OH)
Inhibition of PLCγ1 activation (reduction of p-PLCγ1 (pY783)/PLCγ1 ratio versus Scr) (PLCγ1): ~60% | Overt untoward effects during or following treatment [1]: No overt untoward effects were detected
